Legend:
thrombin = thrombin (Bos taurus, UniProt P00735); experiment: Inhibitory effects on thrombin (hydrolysis of p-tosylarginine methyl ester); type: biochemical; settings: 37° C., 10 minutes; concentration not given
Experimental: The compounds of the formula (I) have excellent inhibitory effects on protease. The inhibitory effects were determined by the following methods:
Inhibitory effects of the compounds on thrombin were determined according to the method described by M. Muramatsu et al (The Journal of Biochemistry, Volume 65 (1), 17 (1969)). In particular, inhibitory effects of the compounds on hydrolysis of p-tosylarginine methyl ester by thrombin were examined (incubated at 37° C. for 10 minutes).

acetic acid ulcers = experiment: Acetic acid ulcers; type: in vivo, Male Sprague-Dawley strain rats; settings: for Ulcer Grade 1 (number of rats): ulcer area 0-10 mm^2; for Ulcer Grade 2 (number of rats): ulcer area 11-20 mm^2; for Ulcer Grade 3 (number of rats): ulcer area 21-30 mm^2; for Ulcer Grade 4 (number of rats): ulcer area 31-40 mm^2; for Ulcer Grade 5 (number of rats): ulcer area >40 mm^2
Experimental: Male Sprague-Dawley strain rats, weighing about 200 g were used. Under ether anesthesia 10% acetic acid solution (0.05 ml) was injected carefully between the serous membrane and the muscle near the pylorus, and the abdomen was closed. Thereafter, the animals were maintained under conditions and administered 1 ml/100 g of each test drug dissolved or suspended in 0.5% carboxymethylcellulose solution p.o. daily×10 starting from the next day of the operation. On the 11th day, the rats were sacrificed under ether anesthesia, and the stomachs were removed. The area of the ulcer was measured and graded into 5 degrees as an ulcer index according to the following method: […]

Shay ulcers = Shay ulcers (pylorus ligation); type: in vivo, Male Sprague-Dawley strain rats; settings: for Ulcer Grade 0 (number of rats): 0=no lesion; for Ulcer Grade 1 (number of rats): 1=hemorrhagic suffusion; for Ulcer Grade 2 (number of rats): 2=1-5 small ulcers (<3 mm); for Ulcer Grade 3 (number of rats): 3=many small ulcers (more than 5) or 1 ulcer of marked size; for Ulcer Grade 4 (number of rats): 4=many ulcers of marked size; for Ulcer Grade 5 (number of rats): 5=perforated ulcer
Experimental: The rats were sacrificed 18 hours later by an overdose of ether and the stomach removed. The stomach was incised along the greater curvature and the surface area of each lesion in forestomach was measured by the naked eye. […] 4=many ulcers of marked size 5=perforated ulcer The test drugs were given intraperitoneally, immediately after pylorus ligation.

chymotrypsin = chymotrypsin (Bos taurus, UniProt P00766); experiment: Inhibitory effects on chymotrypsin (hydrolysis of N-acetyl-L-tyrosine ethyl ester); type: biochemical; settings: 37° C., 10 minutes; concentration not given
Experimental: The compounds of the formula (I) have excellent inhibitory effects on protease. The inhibitory effects were determined by the following methods: Inhibitory effects on the compounds of chymotrypsin were determined according to the method described by M. […] In particular, inhibitory effects of the compounds on hydrolysis of N-acetyl-L-tyrosine ethyl ester by chymotrypsin were examined (incubated at 37° C. for 10 minutes).

urokinase = urokinase (Homo sapiens, UniProt P00749); experiment: Inhibitory effects on urokinase (hydrolysis of N-acetylglycyl lysine methyl ester); type: biochemical; settings: 37° C., 10 minutes; concentration not given
Experimental: The compounds of the formula (I) have excellent inhibitory effects on protease. The inhibitory effects were determined by the following methods: Inhibitory effects of the compounds on urokinase were determined according to the method described by A. J. Joeson et al (Throm. […]. 21, 259-272 (1969)). In particular, inhibitory effects of the compounds on hydrolysis of N-acetylglycyl lysine methyl ester by urokinase were determined (incubated at 37° C. for 10 minutes).

trypsin = target: T1, trypsin (Bos taurus, UniProt P00760); experiment: Inhibitory effects on trypsin (hydrolysis of p-tosylarginine methyl ester); type: biochemical; settings: 37° C., 10 minutes; concentration not given
T1 sequence (P00760 24-246): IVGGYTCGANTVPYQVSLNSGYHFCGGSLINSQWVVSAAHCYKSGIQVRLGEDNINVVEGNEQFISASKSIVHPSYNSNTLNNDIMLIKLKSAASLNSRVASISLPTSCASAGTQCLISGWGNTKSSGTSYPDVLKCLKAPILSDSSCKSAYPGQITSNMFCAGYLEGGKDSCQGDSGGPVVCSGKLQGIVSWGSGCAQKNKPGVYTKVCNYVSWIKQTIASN
Experimental: In particular, inhibitory effects of the compounds on hydrolysis of p-tosylarginine methyl ester by trypsin were examined (incubated at 37° C. for 10 minutes).

plasmin = settings: A. Okano et al, J. Med. Chem., Vol. 15, No. 3, 247 (1972); cited from earlier work
ileum of a guinea pig = experiment: Anti-histamine effect: contraction of ileum induced by histamin dihydrochloride; settings: 1~5 μg; 10^-6 g/ml histamin dihydrochloride
[1] = system: ileum of a guinea pig, sensitized with egg albumin; experiment: Contraction of ileum of a guinea pig sensitized with egg albumin, antigen-induced; settings: 0.50 μg; with 250 μg/ml egg albumin as antigen
[2] = system: carrageenin-induced inflammation; experiment: Carrageenin-induced inflammation; settings: Rattus norvegicus, ip, read-out: ED50, inhibition of carrageenin-induced inflammation

| SMILES | Inhibition (%) Thrombin (thrombin) [%] | Inhibition (%) Chymotrypsin (chymotrypsin) [%] | Inhibition (%) Urokinase (urokinase) [%] | Inhibition (%) Trypsin (trypsin) [%] | Ulcer Grade 1 (number of rats) (acetic acid ulcers; 250 mg/kg p.o. daily×10) | Ulcer Grade 2 (number of rats) (acetic acid ulcers; 250 mg/kg p.o. daily×10) | Ulcer Grade 3 (number of rats) (acetic acid ulcers; 250 mg/kg p.o. daily×10) | Ulcer Grade 4 (number of rats) (acetic acid ulcers; 250 mg/kg p.o. daily×10) | Ulcer Grade 5 (number of rats) (acetic acid ulcers; 250 mg/kg p.o. daily×10) | Ulcer Grade 1 (number of rats) (acetic acid ulcers; 500 mg/kg p.o. daily×10) | Ulcer Grade 2 (number of rats) (acetic acid ulcers; 500 mg/kg p.o. daily×10) | Ulcer Grade 3 (number of rats) (acetic acid ulcers; 500 mg/kg p.o. daily×10) | Ulcer Grade 4 (number of rats) (acetic acid ulcers; 500 mg/kg p.o. daily×10) | Ulcer Grade 5 (number of rats) (acetic acid ulcers; 500 mg/kg p.o. daily×10) | also measured |
| --- | --- | --- | --- | --- | --- | --- | --- | --- | --- | --- | --- | --- | --- | --- | --- |
| CCOC(=O)CCc1ccc(OC(=O)[C@H]2CC[C@H](CNC(=N)N)CC2)cc1 [Compound 8] | 43 | 20 | 55 | 51 |  |  |  |  |  |  |  |  |  |  | Ulcer Grade 1 (number of rats) (acetic acid ulcers; 300 mg/kg p.o. daily×10): 4; Ulcer Grade 2 (number of rats) (acetic acid ulcers; 300 mg/kg p.o. daily×10): 3; Ulcer Grade 3 (number of rats) (acetic acid ulcers; 300 mg/kg p.o. daily×10): 1; Ulcer Grade 4 (number of rats) (acetic acid ulcers; 300 mg/kg p.o. daily×10): 0; Ulcer Grade 5 (number of rats) (acetic acid ulcers; 300 mg/kg p.o. daily×10): 0; Ulcer Grade 0 (number of rats) (Shay ulcers; 200 mg/kg i.p.): 4; Ulcer Grade 1 (number of rats) (Shay ulcers; 200 mg/kg i.p.): 2; Ulcer Grade 2 (number of rats) (Shay ulcers; 200 mg/kg i.p.): 2; Ulcer Grade 3 (number of rats) (Shay ulcers; 200 mg/kg i.p.): 1; Ulcer Grade 4 (number of rats) (Shay ulcers; 200 mg/kg i.p.): 1; Ulcer Grade 5 (number of rats) (Shay ulcers; 200 mg/kg i.p.): 0 |
| NC[C@H]1CC[C@H](C(=O)O)CC1 [Tranexamic acid, trans-4-aminomethylcyclohexane carboxylic acid] |  |  |  |  |  |  |  |  |  |  |  |  |  |  | anti-plasmin effects (plasmin): excellent anti-plasmin effects |
| Cl.N=C(N)NC[C@H]1CC[C@H](C(=O)Oc2ccccc2)CC1 [Compound 3] | 30 | 48 | 52 | 42 |  |  |  |  |  |  |  |  |  |  | inhibition of the contraction of the ileum induced by histamin dihydrochloride (ileum of a guinea pig): inhibited completely; Ulcer Grade 0 (number of rats) (Shay ulcers; 400 mg/kg i.p.): 11; Ulcer Grade 1 (number of rats) (Shay ulcers; 400 mg/kg i.p.): 4; Ulcer Grade 2 (number of rats) (Shay ulcers; 400 mg/kg i.p.): 5; Ulcer Grade 3 (number of rats) (Shay ulcers; 400 mg/kg i.p.): 0; Ulcer Grade 4 (number of rats) (Shay ulcers; 400 mg/kg i.p.): 0; Ulcer Grade 5 (number of rats) (Shay ulcers; 400 mg/kg i.p.): 0; inhibition of the contraction of the ileum sensitized with egg albumin [1]: inhibited completely |
| Cl.NC[C@H]1CC[C@H](C(=O)Oc2ccc(CCC(=O)O)cc2)CC1 [Compound A, 4(2hydroxycarbonylethyl)phenyl trans4-aminomethylcyclohexanecarboxylate hydrochloride, reference compound] | 30 | 0 | 32 | 65 | 4 | 8 | 3 | 2 | 0 | 7 | 6 | 1 | 0 | 1 | Ulcer Grade 1 (number of rats) (acetic acid ulcers; 300 mg/kg p.o. daily×10): 2; Ulcer Grade 2 (number of rats) (acetic acid ulcers; 300 mg/kg p.o. daily×10): 2; Ulcer Grade 3 (number of rats) (acetic acid ulcers; 300 mg/kg p.o. daily×10): 2; Ulcer Grade 4 (number of rats) (acetic acid ulcers; 300 mg/kg p.o. daily×10): 1; Ulcer Grade 5 (number of rats) (acetic acid ulcers; 300 mg/kg p.o. daily×10): 1; Ulcer Grade 0 (number of rats) (Shay ulcers; 150 mg/kg i.p.): 2; Ulcer Grade 1 (number of rats) (Shay ulcers; 150 mg/kg i.p.): 0; Ulcer Grade 2 (number of rats) (Shay ulcers; 150 mg/kg i.p.): 3; Ulcer Grade 3 (number of rats) (Shay ulcers; 150 mg/kg i.p.): 1; Ulcer Grade 4 (number of rats) (Shay ulcers; 150 mg/kg i.p.): 4; Ulcer Grade 5 (number of rats) (Shay ulcers; 150 mg/kg i.p.): 0; Ulcer Grade 0 (number of rats) (Shay ulcers; 300 mg/kg i.p.): 6; Ulcer Grade 1 (number of rats) (Shay ulcers; 300 mg/kg i.p.): 0; Ulcer Grade 2 (number of rats) (Shay ulcers; 300 mg/kg i.p.): 0; Ulcer Grade 3 (number of rats) (Shay ulcers; 300 mg/kg i.p.): 1; Ulcer Grade 4 (number of rats) (Shay ulcers; 300 mg/kg i.p.): 2; Ulcer Grade 5 (number of rats) (Shay ulcers; 300 mg/kg i.p.): 1 |
| COc1cc(C=O)ccc1OC(=O)[C@H]1CC[C@H](CNC(=N)N)CC1 [Compound 2] | 51 | 100 | 72 | 61 | 14 | 0 | 3 | 1 | 0 | 12 | 3 | 2 | 0 | 1 | Ulcer Grade 1 (number of rats) (acetic acid ulcers; 125 mg/kg p.o. daily×10): 9; Ulcer Grade 2 (number of rats) (acetic acid ulcers; 125 mg/kg p.o. daily×10): 1; Ulcer Grade 3 (number of rats) (acetic acid ulcers; 125 mg/kg p.o. daily×10): 2; Ulcer Grade 4 (number of rats) (acetic acid ulcers; 125 mg/kg p.o. daily×10): 2; Ulcer Grade 5 (number of rats) (acetic acid ulcers; 125 mg/kg p.o. daily×10): 1 |
| N=C(N)NC[C@H]1CC[C@H](C(=O)Oc2ccccc2)CC1 |  |  |  |  |  |  |  |  |  |  |  |  |  |  | ED50 [2]: ~200 mg/kg |
| N=C(N)NCC1CCC(C(=O)O)CC1 (stereo not drawn) [4-guanidinomethylcyclohexanecarboxylic acid] |  |  |  |  |  |  |  |  |  |  |  |  |  |  | anti-plasmin effects (plasmin): little anti-plasmin effects |
| CCOC(=O)c1ccccc1OC(=O)[C@H]1CC[C@H](CNC(=N)N)CC1 [Compound 9] | 29 | 60 | 50 | 28 | 11 | 2 | 1 | 0 | 0 | 12 | 2 | 1 | 0 | 0 | Ulcer Grade 1 (number of rats) (acetic acid ulcers; 125 mg/kg p.o. daily×10): 11; Ulcer Grade 2 (number of rats) (acetic acid ulcers; 125 mg/kg p.o. daily×10): 3; Ulcer Grade 3 (number of rats) (acetic acid ulcers; 125 mg/kg p.o. daily×10): 1; Ulcer Grade 4 (number of rats) (acetic acid ulcers; 125 mg/kg p.o. daily×10): 1; Ulcer Grade 5 (number of rats) (acetic acid ulcers; 125 mg/kg p.o. daily×10): 1 |

From patent US4348410A, “Cyclohexane carboxylic acid derivatives” (Nippon Chemiphar Co., Ltd., priority 1979, dated 1982)
